The numbers were not newly measured in US20080107723A1, “Methods of Treating Pulmonary Distress” (priority 2006, published 2008), which cites them from elsewhere.

The conditions of data set [1]: administered by inhalation; CF patients.
Data set [2] deals with colony forming units (CFU). Particulars: administered by inhalation; CF patients.

On to `NC[C@H]1O[C@H](O[C@H]2[C@H](O)[C@@H](O[C@H]3O[C@H](CO)[C@@H](O)[C@H](N)[C@H]3O)[C@H](N)C[C@@H]2N)[C@H](N)C[C@@H]1O` [Tobramycin], for which the “improvement in FEV1” value in data set [1] was “approximately 10%”. For the same molecule, the “reduction in colony forming units (CFU)” value in data set [2] is “about 2 log units”.

B1: Pulmozyme: recombinant human Dnase administered by inhalation (protein, UniProt P24855 23-282, looked up)
Deoxyribonuclease-1: LKIAAFNIQTFGETKMSNATLVSYIVQILSRYDIALVQEVRDSHLTAVGKLLDNLNQDAPDTYHYVVSEPLGRNSYKERYLFVYRPDQVSAVDSYYYDDGCEPCGNDTFNREPAIVRFFSRFTEVREFAIVPLHAAPGDAVAEIDALYDVYLDVQEKWGLEDVMLMGDFNAGCSYVRPSQWSSIRLWTSPTFQWLIPDSADTTATPTHCAYDRIVVAGMLLRGAVVPDSALPFNFQAAYGLSDQLAQAISDHYPVEVMLK
Consider B1, for which the “improvement in FEV1” value in data set [1] is listed as “approximately 10%”.
